Where two headings read alike, the source gives them in different places.
Tested on: cat fleas (Ctenocephalides felis)
Assay: Efficacy of various isoxazolines against cat fleas on mice (Example 3)
Format: in vivo
Settings: for pest or weed control at 20 mg/kg: Ctenocephalides felis, po, read-out: Flea inhibition relative to negative control
Method: In this experiment, mice were randomly assigned to a treatment group or a negative control (untreated) group. Each group consisted of three mice. The mice in the treatment groups were orally administered 20 mg/kg bodyweight of various isoxazolines dissolved in 7% DMF-premix and 93% purified water (aqua ad injectabilia). The application volume of these treatments was 0.01 mL/g bodyweight. One hour after treatment, each mouse was sedated and generally infested (whole body) with 30 vital, adult fleas (C. felis). To achieve this, the sedated mice were placed into an infestation-jar, and the fleas were placed directly onto the fur. After approximately 30 minutes of feeding, fleas were recovered from the mice. Assessments for inhibition and mortality were conducted 1 hr, 24 hr, and 48 hr after each infestation. The efficacy was calculated as the percentage of inhibited fleas in the treatment groups relative to the negative control group.

[1] = 1 h, mice, oral 20 mg/kg, infested 1 hr after treatment, 1 hr after infestation
[2] = 24 h, mice, oral 20 mg/kg, infested 1 hr after treatment, 24 hr after infestation
[3] = 48 h, mice, oral 20 mg/kg, infested 1 hr after treatment, 48 hr after infestation

Row | Structure (SMILES) | pest or weed control at 20 mg/kg [1] [%] | pest or weed control at 20 mg/kg [2] [%] | pest or weed control at 20 mg/kg [3] [%] | pest or weed control at 20 mg/kg (1 h) [%] | pest or weed control at 20 mg/kg (24 h) [%] | pest or weed control at 20 mg/kg (48 h) [%] | Flea inhibition relative to negative control (mice, oral 20 mg/kg, infested 1 hr after treatment, 1 hr after infestation)
1 | Cc1cc(C2=NO[C@@](c3cc(Cl)cc(Cl)c3)(C(F)(F)F)C2)ccc1C(=O)NCC(=O)NCC(F)(F)F (stereo in doubt) [Compound 17-1] | 100 | 100 | 100 | – | – | – | –
2 | Cc1cc(C2=NOC(CCl)(c3cc(Cl)cc(Cl)c3)C2)ccc1C(=O)NCc1ccccn1 (stereo not drawn) [Compound 5-13] | 16.7 | 18.9 | 18.9 | – | – | – | –
3 | CCc1cc(C2=NOC(c3cc(Cl)cc(Cl)c3)(C(F)(F)F)C2)ccc1C(=O)NCC(F)(F)F (stereo not drawn) [Compound 5-15] | 0 | 31.1 | 36.7 | – | – | – | –
4 | COC(=O)N(C)C(=O)c1ccc(C2=NOC(c3cc(Cl)cc(Cl)c3)(C(F)(F)F)C2)cc1C (stereo not drawn) [Compound 5-16] | 0 | 46.7 | 54.4 | – | – | – | –
5 | COC(=O)N(C(=O)c1ccc(C2=NOC(c3cc(Cl)cc(Cl)c3)(C(F)(F)F)C2)cc1C)c1cnc(Cl)cn1 (stereo not drawn) [Compound 5-17] | 0 | 36.7 | 41.1 | – | – | – | –
6 | Cc1cc(C2=NOC(c3cc(Cl)cc(Cl)c3)(C(F)(F)F)C2)ccc1C(=O)N(C(=O)C(C)C)c1ncc(C#N)cn1 (stereo not drawn) [Compound 5-18] | 0 | 54.4 | 54.4 | – | – | – | –
7 | COC(=O)N(Cc1ccccn1)C(=O)c1ccc(C2=NOC(c3cc(Cl)cc(Cl)c3)(C(F)(F)F)C2)cc1C (stereo not drawn) [Compound 5-19] | 0 | 90 | 94.4 | – | – | – | –
8 | COC(=O)N(C)C(=O)c1ccc(C2=NOC(c3cc(Cl)cc(Cl)c3)(C(F)(F)F)C2)cc1I (stereo not drawn) [Compound 5-20] | 4.4 | 96.7 | 97.8 | – | – | – | –
9 | CCN(C(=O)c1ccc(C2=NOC(c3cc(Cl)cc(Cl)c3)(C(F)(F)F)C2)cc1C)c1ncc(Cl)cn1 (stereo not drawn) [Compound 5-21] | 0 | 75.6 | 77.8 | – | – | – | –
10 | CC(=O)N(C(=O)c1ccc(C2=NOC(c3cc(Cl)cc(Cl)c3)(C(F)(F)F)C2)cc1C)c1ncc(Br)cn1 (stereo not drawn) [Compound 5-22] | 0 | 82.2 | 83.3 | – | – | – | –
11 | Cc1cc(C2=NOC(c3cc(Cl)cc(Cl)c3)(C(F)(F)F)C2)ccc1C(=O)N(C(=O)C(C)C)c1ncc(Cl)cn1 (stereo not drawn) [Compound 5-23] | 0 | 87.8 | 94.4 | – | – | – | –
12 | Cc1cc(C2=NOC(c3cc(Cl)cc(Cl)c3)(C(F)(F)F)C2)ccc1C(=O)N(C(=O)C1CC1)c1ncc(Cl)cn1 (stereo not drawn) [Compound 5-24] | 0 | 84.4 | 86.7 | – | – | – | –
13 | COC(=O)N(COCC(F)(F)F)C(=O)c1ccc(C2=NOC(c3cc(Cl)cc(Cl)c3)(C(F)(F)F)C2)cc1C (stereo not drawn) [Compound 5-25] | 0 | 75.6 | 84.4 | – | – | – | –
14 | COCN(C(=O)OC)C(=O)c1ccc(C2=NOC(c3cc(Cl)cc(Cl)c3)(C(F)(F)F)C2)cc1Br (stereo not drawn) [Compound 5-26] | 0 | 77.8 | 77.8 | – | – | – | –
15 | COC(=O)N(COC(C)C)C(=O)c1ccc(C2=NOC(c3cc(Cl)cc(Cl)c3)(C(F)(F)F)C2)cc1C (stereo not drawn) [Compound 5-27] | 12.2 | 72.2 | 84.4 | – | – | – | –
16 | COCN(C(=O)c1ccc(C2=NOC(c3cc(Cl)cc(Cl)c3)(C(F)(F)F)C2)cc1C)c1ncc(Cl)cn1 (stereo not drawn) [Compound 5-28] | 1.1 | 70 | 71.1 | – | – | – | –

Row | Structure (SMILES) | pest or weed control at 20 mg/kg [1] [%] | pest or weed control at 20 mg/kg [2] [%] | pest or weed control at 20 mg/kg [3] [%] | pest or weed control at 20 mg/kg (1 h) [%] | pest or weed control at 20 mg/kg (24 h) [%] | pest or weed control at 20 mg/kg (48 h) [%] | Flea inhibition relative to negative control (mice, oral 20 mg/kg, infested 1 hr after treatment, 1 hr after infestation)
17 | COCN(C(=O)OC)C(=O)c1ccc(C2=NOC(c3cc(Cl)cc(Cl)c3)(C(F)(F)F)C2)cc1I (stereo not drawn) [Compound 5-29] | 0 | 68.9 | 68.9 | – | – | – | –
18 | CC(=O)N(C(=O)c1ccc(C2=NOC(c3cc(Cl)cc(Cl)c3)(C(F)(F)F)C2)cc1C)c1ncc(C#N)cn1 (stereo not drawn) [Compound 5-30] | 2.2 | 67.8 | 68.9 | – | – | – | –
19 | COC(=O)N(C(=O)c1ccc(C2=NOC(c3cc(Cl)cc(Cl)c3)(C(F)(F)F)C2)cc1C)c1ncc(C#N)cn1 (stereo not drawn) [Compound 5-31] | 0 | 65.6 | 65.6 | – | – | – | –
20 | CC(=O)N(C(=O)c1ccc(C2=NOC(c3cc(Cl)cc(Cl)c3)(C(F)(F)F)C2)cc1C)c1cnccn1 (stereo not drawn) [Compound 5-32] | 0 | 70 | 71.1 | – | – | – | –
21 | CON=CNC(=O)c1ccc(C2=NOC(c3cc(Cl)c(Cl)c(Cl)c3)(C(F)(F)F)C2)cc1C (stereo not drawn) [Compound 5-33] | 0 | 100 | 100 | – | – | – | –
22 | O=C(CNC(=O)c1ccc(C2=NOC(c3cc(C(F)(F)F)cc(C(F)(F)F)c3)(C(F)(F)F)C2)cc1)NCC(F)(F)F (stereo not drawn) [Compound 5-34] | 2.3 | 96.6 | 96.6 | – | – | – | –
23 | CC(NC(=O)c1ccc(C2=NOC(c3cc(Cl)c(Cl)c(Cl)c3)(C(F)(F)F)C2)cc1)C(=O)NCC(F)(F)F (stereo not drawn) [Compound 5-35] | 0 | 100 | 100 | – | – | – | –
24 | CO/N=C\NC(=O)c1ccc(C2=NO[C@@](c3cc(Cl)cc(Cl)c3)(C(F)(F)F)C2)cc1C [Compound 5-36] | 45.7 | 99 | 99 | – | – | – | –
25 | CCO/C(N)=N\C(=O)c1ccc(C2=NOC(c3cc(Br)cc(Br)c3)(C(F)(F)F)C2)cc1C (stereo not drawn) [Compound 5-37] | 7.7 | 99 | 100 | – | – | – | –
26 | CCO/C(N)=N\C(=O)c1ccc(C2=NOC(c3cc(Cl)cc(Cl)c3)(C(F)(F)Cl)C2)cc1C (stereo not drawn) [Compound 5-38] | 2.3 | 96.7 | 97.7 | – | – | – | –
27 | O=C(CNC(=O)c1ccc(C2=NOC(c3cc(Cl)c(Cl)c(C(F)(F)F)c3)(C(F)(F)F)C2)cc1)NCC(F)(F)F (stereo not drawn) [Compound 5-39] | 13.3 | 99 | 99 | – | – | – | –
28 | Cc1cc(C2=NOC(c3cc(Cl)c(F)c(Cl)c3)(C(F)(F)F)C2)ccc1C(=O)NCC(=O)NCC(F)(F)F (stereo not drawn) [Compound 5-40] | – | – | – | 0 | 85.6 | 85.6 | –
29 | Cc1cc(C2=NOC(c3cc(Cl)c(F)c(C(F)(F)F)c3)(C(F)(F)F)C2)ccc1C(=O)NCC(=O)NCC(F)(F)F (stereo not drawn) [Compound 5-41] | 0 | 94.3 | 95.6 | – | – | – | –
30 | COC(=O)N(C(=O)c1ccc(C2=NOC(c3cc(Cl)cc(Cl)c3)(C(F)(F)F)C2)cc1C)c1ncc(Cl)cn1 (stereo not drawn) [Compound 5-48] | – | 91.1 | 91.1 | – | – | – | –
31 | CCO/N=C\NC(=O)c1ccc(C2=NOC(c3cc(Cl)cc(Cl)c3)(C(F)(F)F)C2)cc1C (stereo not drawn) [Compound 5-50] | – | – | – | – | – | – | (27.7%)

Source: US20240239759A1, “ISOXAZOLINE COMPOSITIONS AND THEIR USE AS ANTIPARASITICS” (Intervet Inc., priority 2007, published 2024)
